Results on one molecule are retold here after paper PMC9276531, “Hyaluronic acid–GPRC5C signalling promotes dormancy in haematopoietic stem cells” (Nature Cell Biology, 2022).

Common to all, as to type: cell-based
For assay [1], the target named is T1, GPRC5C (Homo sapiens, UniProt Q9NQ84).
T1 construct: GPRC5C-Tango plasmid, N-terminal Flag, PRESTO-Tango reporter fusion; transfected in HTLA or HEK293T cells
The assay is described as follows: PRESTO-Tango beta-arrestin recruitment, luciferase. Conditions: HTLA cells, 24 h, HEPES/HBSS pH 7.4. A general note: Activated receptors often draw arrestin, which recruitment assays turn into a signal.

The target of assay [2] is T1, GPRC5C. In words: competition with HA-fluorescein on transfected HEK293T cells, flow cytometry. Conditions: 100 uM NAG, 8 ug HA-fluorescein, 60 min, room temperature.
In assay [3] the target is T2, GPRC5C (Homo sapiens, UniProt Q9NQ84, N41L, form not given).
T2 construct: GPRC5C-Tango plasmid, N-terminal Flag, PRESTO-Tango reporter fusion; transfected in HTLA or HEK293T cells
The assay is described as follows: PRESTO-Tango beta-arrestin recruitment, luciferase. Conditions: HTLA cells, putative N-glycosylation site mutant.

T1 sequence (Q9NQ84 24-441): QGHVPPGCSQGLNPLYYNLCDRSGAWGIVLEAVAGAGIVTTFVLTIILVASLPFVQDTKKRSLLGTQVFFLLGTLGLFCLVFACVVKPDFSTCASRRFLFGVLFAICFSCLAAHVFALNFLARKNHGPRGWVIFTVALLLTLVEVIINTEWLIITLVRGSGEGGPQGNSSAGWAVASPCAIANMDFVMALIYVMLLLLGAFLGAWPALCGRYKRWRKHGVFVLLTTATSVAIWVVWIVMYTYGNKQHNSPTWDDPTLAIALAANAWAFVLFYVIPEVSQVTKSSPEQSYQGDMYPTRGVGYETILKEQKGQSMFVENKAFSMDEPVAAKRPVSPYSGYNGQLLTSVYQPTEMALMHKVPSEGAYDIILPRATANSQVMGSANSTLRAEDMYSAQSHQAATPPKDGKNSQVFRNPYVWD
T2 sequence (Q9NQ84 12-429 N41L): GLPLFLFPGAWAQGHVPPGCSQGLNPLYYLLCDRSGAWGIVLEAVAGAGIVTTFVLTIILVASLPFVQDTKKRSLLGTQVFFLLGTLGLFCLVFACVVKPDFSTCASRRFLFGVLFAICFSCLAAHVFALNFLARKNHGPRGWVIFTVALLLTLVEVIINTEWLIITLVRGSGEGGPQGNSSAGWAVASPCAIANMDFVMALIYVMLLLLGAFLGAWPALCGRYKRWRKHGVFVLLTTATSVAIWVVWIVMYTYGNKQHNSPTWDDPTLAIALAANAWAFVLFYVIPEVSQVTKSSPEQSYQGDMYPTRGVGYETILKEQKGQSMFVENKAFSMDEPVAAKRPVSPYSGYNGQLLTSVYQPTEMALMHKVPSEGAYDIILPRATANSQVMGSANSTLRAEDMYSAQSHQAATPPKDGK

Turning to `CC(=O)N[C@H]1C(O)O[C@H](CO)[C@@H](O)[C@@H]1O` (stereo partly drawn) [NAG, N-acetyl-D-glucosamine], the “concentration-response (agonist)” value at GPRC5C [1] is “HA and NAG treatments led to a dose-dependent response”; at GPRC5C [3] it was “dampened the luciferase response that was previously elicited by treatment with HA and NAG”. The “competition with HA-fluorescein on transfected HEK293T cells, flow cytometry” value at GPRC5C [2] is on record as “HA interaction with GPRC5C was reduced when NAG was present”.
